Results taken from patent US20040009601A1, “Methods for the regeneration and transformation of cotton” (The Regents of the University of California, priority 2002, published 2004).

Test system: Maxxa hypocotyl explants
Experiment: Callus induction from Maxxa hypocotyl explants, orthogonal array L9 factorial experiment
Assay type: cell-based, Gossypium hirsutum L. cv. Maxxa
Settings: for Σ RG1: regeneration potential, mean Y of factor 1: factor 1 = 0 mg l-1 of the hormone; for Σ RG2: regeneration potential, mean Y of factor 2: factor 2 = 2,4-D 0.05, NAA 1.0, kinetin 0.5 mg l-1; for Σ RG3: regeneration potential, mean Y of factor 3: factor 3 = 2,4-D 0.1, NAA 2.0, kinetin 1.0 mg l-1; for Σ RG: mean of Σ RG1, Σ RG2 and Σ RG3: per hormone over the three factor levels
Procedure: Hypocotyl explants ˜5 mm in length were excised from 7-10 day-old seedlings under sterile conditions. Explants were placed in a 25×100-mm petri dish (one seedling per plate) containing ˜30 ml of callus induction medium, sealed with parafilm and cultured at 28±2° C. under a combination of cool white and full spectrum fluorescent lights with a 16-hour light/8-hour dark cycle for 3 to 4 weeks to induce callus formation.
Initial experiments were conducted using MS2NK (2 mg 1^−1 NAA substituted for 2,4-D in MS2DK, Trolinder and Goodin, 1987), a medium used for callus induction in the elite regenerable Coker 312 line. To optimize a callus induction medium for Maxxa, a factorial experiment using an Orthogonal Array L9 (3^4) experimental design ((Taguchi, Introduction to Quality Engineering, Tokyo, Japan (1986)) was performed to determine the best hormonal regime for induction of callus capable of undergoing somatic embryogenesis. The optimal combination of NAA, 2,4-D and kinetin was evaluated at varying concentrations (Table 1) in basal MS medium (Murashige and Skoog, Physiol. Plant. 15:473-497 (1962)) in four independent experiments. In each experiment, 18 hypocotyl explants were excised from 24-48 individual seedlings to provide two explants per seedling per treatment. Each replicated treatment was evaluated for the ability to proliferate a friable callus that was yellowish-green to creamy in color, granular in texture, and readily dispersed in liquid medium. Calli characteristics were scored at 3 weeks and 6 weeks for color, texture, dispersiveness in liquid media, and cell/callus size as the parameters for evaluation. Based on these criteria, the optimized Maxxa callus induction medium (MCIM) selected for cotton regeneration is comprised of MS salts (GibcoBRL Cat no. 11117-074) supplemented with 100 mg 1^−1 myo-inositol, B5 vitamins (10 mg 1^−1 thiamine-HCl; 1 mg 1^−1 nicotinic acid; 1 mg 1^−1 pyridoxine), 0.75 g 1^−1 MgCl2, 30 g 1^−1 glucose, 2.0 mg 1^−1 NAA and 0.05 mg 1^−1 2,4-D. The medium was adjusted to pH 5.8 before adding agar (2.5 g 1^−1 Phytagel).
A factorial experiment using an orthogonal array L9 (3^4) design was conducted to determine optimal conditions for callus induction and somatic embryogenesis by Maxxa hypocotyl explants. Different hormonal combinations of auxin (NAA and/or 2,4-D) and cytokinin (kinetin) were tested at varying concentrations (Table 1) in basal MS medium (Murashige and Skoog, supra). Each of the 9 replicated treatments was scored for callus initiation efficiency (Y) based on two components—(I) the mean of the number of explants producing good quality callus and (II) embryogenic potential, that is, the developmental transition of undifferentiated callus to somatic embryogenesis—expressed as a percent (Table 1). The production and proliferation of callus considered of “good quality” was based on four criteria: color, texture, dispersiveness in liquid media, and size/shape of undifferentiated cells. Within each category, each callus was scored with a rating of 1 to 4 based on the following parameters: Color—dark green (4) to parrot-green/creamy (1), Texture—hard and compact (4) to soft and friable (1), Dispersiveness—intact (4) to readily dispersed cell clumps (1) in liquid medium, Size/Shape—small cells/compact callus (<1 mm) (4) to nodular, “grainy” callus (>2 mm) (1). Good quality callus received ratings of “1” in each category. The embryogenic potential (II) of Y represents the ability of undifferentiated parenchymal cells to organize into meristematic centers and successfully undergo somatic embryogenesis. The factors considered in determining II/Y included the formation of organized cell clusters in embryogenic cultures, the types of embryos produced (globular, heart-shaped, torpedo), and the color of the somatic embryo (white/transparent vs. yellow/opaque). […]

SMILES | Importance of the hormone for callus induction from Maxxa hypocotyls, judged from Σ RG | Σ RG1: regeneration potential, mean Y of factor 1 [%] | Σ RG2: regeneration potential, mean Y of factor 2 [%] | Σ RG3: regeneration potential, mean Y of factor 3 [%] | Σ RG: mean of Σ RG1, Σ RG2 and Σ RG3 [%]
c1coc(CNc2ncnc3[nH]cnc23)c1 [Kinetin, kinetin] | not critical | 63.27 | 32.78 | 46.65 | 32.49
O=C(O)COc1ccc(Cl)cc1Cl [2,4-D, 2,4-dichlorophenoxyacetic acid] | essential for callus induction | 5.77 | 61.87 | 77.07 | 71.30
